What was measured:
Conditions in all cases: 72 h
[1] = system: Caco-2; assay: cell viability relative to DMSO; higher = less toxic
[2] = system: Calu-3; assay: as above
[3] = system: HepG2; assay: as above
[4] = system: U2OS; assay: as above
[5] = system: Vero E6; assay: as above
[6] = system: Caco-2; assay: relative viability EC50 (midpoint between 100% and the lowest measured viability); higher = less toxic
[7] = system: Calu-3; assay: as above
[8] = system: HepG2; assay: as above
[9] = system: U2OS; assay: as above
[10] = system: Vero E6; assay: as above
[11] = system: Caco-2; assay: drug sensitivity score (DSS) for viability; higher = more toxic; extreme values may be limits of the assay
[12] = system: Calu-3; assay: as above
[13] = system: HepG2; assay: as above
[14] = system: U2OS; assay: as above
[15] = system: Vero E6; assay: as above

SMILES	cell viability ([1]; 1 nM)	cell viability ([1]; 10 nM)	cell viability ([1]; 100 nM)	cell viability ([1]; 1000 nM)	cell viability ([1]; 10000 nM)	cell viability ([2]; 1 nM)	cell viability ([2]; 10 nM)	cell viability ([2]; 100 nM)	cell viability ([2]; 1000 nM)	cell viability ([2]; 10000 nM)	cell viability ([3]; 1 nM)	cell viability ([3]; 10 nM)	cell viability ([3]; 100 nM)	cell viability ([3]; 1000 nM)	cell viability ([3]; 10000 nM)	cell viability ([4]; 1 nM)	cell viability ([4]; 10 nM)	cell viability ([4]; 100 nM)	cell viability ([4]; 1000 nM)	cell viability ([4]; 10000 nM)	cell viability ([5]; 1 nM)	cell viability ([5]; 10 nM)	cell viability ([5]; 100 nM)	cell viability ([5]; 1000 nM)	cell viability ([5]; 10000 nM)	relative viability EC50 [6]	relative viability EC50 [7]	relative viability EC50 [8]	relative viability EC50 [9]	relative viability EC50 [10]	drug sensitivity score [11]	drug sensitivity score [12]	drug sensitivity score [13]	drug sensitivity score [14]	drug sensitivity score [15]
CN1CC[C@@]2(C)c3cc(O)ccc3N(C)[C@@H]12 [eseroline-(-)]	103%	97.9%	105%	89.6%	77.5%	101%	101%	99.1%	112%	84.6%	98.2%	103%	110%	109%	83.7%	106%	105%	99.1%	101%	96.4%	96.3%	97.9%	96.1%	94.2%	96%	> 10 µM	> 10 µM	> 10 µM	> 10 µM	> 10 µM	1.9	0.1	0.2	0	0
CC(C)C[C@@H](N)C(=O)N[C@H]1C(=O)N[C@@H](CC(N)=O)C(=O)N[C@H]2C(=O)N[C@H]3C(=O)N[C@H](C(=O)N[C@H](C(=O)O)c4cc(O)cc(O)c4-c4cc3ccc4O)[C@H](O)c3ccc(c(Cl)c3)Oc3cc2cc(c3O[C@@H]2O[C@H](CO)[C@@H](O)[C@H](O)[C@H]2O[C@H]2C[C@](C)(N)[C@H](O)[C@H](C)O2)Oc2ccc(cc2Cl)[C@H]1O [norvancomycin]	91.9%	93.8%	104%	95.7%	98.5%	102%	100%	104%	97.9%	91.9%	102%	95.8%	97.3%	86.9%	97.7%	100%	104%	96.6%	102%	102%	109%	94.8%	102%	97%	104%	> 10 µM	> 10 µM	> 10 µM	> 10 µM	> 10 µM	0	0	0	0	0
CC1(C)CCC2=C(O1)c1ccccc1C(=O)C2=O [beta-lapachone]	101%	96.5%	91.9%	96.3%	29.9%	109%	91.4%	110%	106%	91.2%	107%	99.3%	94.4%	99.5%	7.5%	106%	100%	101%	96.5%	21.5%	104%	105%	101%	102%	91.6%	2.75 µM	> 10 µM	3.12 µM	2.83 µM	> 10 µM	4.4	0	5.2	4.8	0
CNc1ncc2cc(-c3cc(NC(=O)NCCC(C)(C)C)c(F)cc3C)c(C)nc2n1	101%	97.9%	99.1%	71.1%	35.7%	90.9%	106%	106%	75.5%	24.6%	111%	98.9%	78.2%	12.5%	8.3%	104%	104%	97.9%	82.3%	17.6%	96.6%	103%	95.1%	59.2%	22.3%	1.09 µM	1.34 µM	0.189 µM	1.67 µM	0.915 µM	7.2	7.7	18.9	7.4	9.1
NCCC[C@H](N)C(=O)O [ornithine]	97.2%	94.7%	101%	101%	100%	103%	95.6%	102%	102%	104%	97.3%	112%	94.7%	97.2%	91.8%	100%	93.5%	99.1%	96.8%	104%	–	–	–	–	–	> 10 µM	> 10 µM	> 10 µM	> 10 µM	–	0	0	0	0	–
COC(=O)c1c(-c2cc(OC)c(OC)c(OC)c2)c2ccnc(OCc3ncccn3)c2c(=O)n1Cc1ccnc(C)c1 [T-0156]	96.4%	93%	89.6%	99.9%	103%	87%	96.4%	90.2%	98.5%	101%	–	–	–	–	–	95.6%	103%	96.5%	99.3%	100%	96%	94.4%	102%	105%	109%	> 10 µM	> 10 µM	–	> 10 µM	> 10 µM	0	0	–	0	0
NCCNCCNCCN [trientine]	107%	106%	96.4%	94.4%	97.6%	89%	101%	99%	98.7%	99.9%	90.9%	96.6%	92.1%	98%	92.8%	100%	99.1%	100%	97.5%	104%	–	–	–	–	–	> 10 µM	> 10 µM	> 10 µM	> 10 µM	–	0	0	0	0	–
Cc1cccc(C)c1NC(=O)c1ccccc1C(=O)O [ftaxilide]	94.5%	100%	102%	99.8%	104%	103%	106%	98.6%	122%	106%	–	–	–	–	–	102%	105%	98.5%	101%	97.2%	107%	102%	99.8%	96.3%	100%	> 10 µM	> 10 µM	–	> 10 µM	> 10 µM	0	0	–	0	0
